Patent US20250221413A1, “Use and Preparation Method of Sulfoxamyl, and Oxidation System” (priority 2023, published 2025)
≈ marks a conversion by molar mass, not a printed value. Where “and” joins values, the source holds several entries; their conditions need not be identical. Equal values may be shown once. Read-outs that look alike come from different tables or passages of the source.

Legend:
Meloidogyne incognita = experiment: Indoor toxicity test against Meloidogyne incognita second-instar larvae (J2); settings: for LC50 / mortality at 50 µg/mL / mortality at 100 µg/mL / mortality at 400 µg/mL / mortality at 200 µg/mL / mortality at 25 µg/mL: Meloidogyne incognita
Experimental: Materials: the tested nematodes were collected from three different areas, namely cucumber crops in Dawenkou Town, Tai'an City, Shandong Province, and were all identified as southern root-knot nematodes (Meloidogyne incognita). The diseased roots were washed, cut into small sections of 0.5 cm to 1 cm, rinsed in 1% NaClO solution for about 30 s to 60 s, and rinsed with 200-mesh and 500-mesh sieves to collect nematode eggs for later use. The collected eggs were incubated at 25° C. using the Bayman funnel method and the second-instar larvae were collected 1 time per 24 h to ensure that the second-instar larvae selected each time were fresh and of consistent vitality.
The agent was 98% sulfoxamyl technical, and the comparison agents were 96% oxamyl technical and 87% fosthiazate technical.
The preparation for the agent was in accordance with the provisions for preparation of the liquid medicine in the Agricultural Industry Standard of the People's Republic of China NYT 1833.1-2009 “Guideline for laboratory bioassay of pesticides”, as shown in Table 6.
Methods: according to the experimental plan, the test agent was diluted to different mass concentrations, and 0.5 mL of the agent solution and 0.5 mL of the nematode solution (containing about 100 nematodes) were added into a 24-well cell culture plate. The treatment with each concentration of the agent was repeated 4 times, and auxiliary agent control and blank control were also conducted. […]

SD rats = experiment: Acute oral toxicity test, single oral fixed-dose procedure; type: in vivo; settings: single oral dose 500 mg/kg
Experimental: Materials: the test agent 98% sulfoxamyl technical, batch number 20230708-1, was provided by Ningxia Hugerise Chemical Co., Ltd. Experimental animals: SPF-grade SD rats, half male and half female, weighing 180 g to 220 g, were provided by Jinan Pengyue Experimental Animal Breeding Co., Ltd., license number SCXK (Lu) 20190003. Rearing environment: the rats were housed in an SPF-grade animal room with free access to water and food, a temperature of 20° C. to 25° C., a humidity of 40% to 60%, and a 12 h/12 h light cycle. Feed: conventional pellet feed was provided by Jinan Pengyue Experimental Animal Breeding Co., Ltd.
The test was conducted in accordance with “Toxicological test methods of pesticides for registration, GB15670.5-2017”, “Acute toxicity test, GB15193.3-2003” and relevant acute toxicity research data.
Methods: a single oral fixed-dose procedure was conducted to preliminarily explore the toxic dose range of sulfoxamyl. LD50 and confidence limits were calculated by using the probability unit method (Bliss method). SD rats were randomly divided into 5 groups, 10 rats in each group, half of them were male and half were female. […] The common ratio value among each dose group was 0.75. After a single oral administration, the mortality rate of the experimental animals was recorded within 24 h and 14 days after administration, while the general condition of the animals was observed, and the food intake and body weight changes were recorded.

[1] = tested on: Meloidogyne incognita eggs; experiment: Inhibitory effect on hatching of Meloidogyne incognita eggs; type: in vivo; settings: 7 d
[2] = Meloidogyne incognita, 168 h, egg hatching

## CNC(=O)O/N=C(\SC)C(=O)N(C)C [Oxamyl, N,N-dimethyl-2-[[[(methylamino)carbonyl]oxy]imino]-2-(methylthio)acetamide]
Meloidogyne incognita; 25 mg/L, 24 h
  Corrected mortality: 6.89% and 2.76% and 3.40% and 3.65%
  Mortality: 8.04% and 3.96% and 4.59% and 4.84%
Meloidogyne incognita; 25 mg/L, 48 h
  Corrected mortality: 12.13% and 16.63% and 6.92% and 6.73%
  Death count: 15 and 18 and 9 and 10
  Mortality: 13.39% and 17.82% and 8.26% and 8.06%
Meloidogyne incognita; 25 mg/L, 72 h
  Corrected mortality: 23.34% and 15.88% and 15.37%
  Death count: 20 and 25 and 19 and 21
  Mortality: 24.75% and 17.43% and 16.94%
Meloidogyne incognita; 50 mg/L, 24 h
  Corrected mortality: 29.73% and 26.88% and 16.90%
  Mortality: 30.60% and 27.78% and 17.92%
Meloidogyne incognita; 50 mg/L, 48 h
  Corrected mortality: 44.73% and 39.88% and 31.09%
  Mortality: 45.52% and 40.74% and 32.08%
Meloidogyne incognita; 50 mg/L, 72 h
  Corrected mortality: 55.90% and 59.44% and 45.22%
  Death count: 41 and 76 and 65 and 49
  Mortality: 56.72% and 60.19% and 46.23%
Meloidogyne incognita; 100 mg/L, 24 h
  Corrected mortality: 48.91% and 58.66% and 60.23%
  Death count: 74 and 54 and 71 and 68
  Mortality: 49.54% and 59.17% and 60.71%
Meloidogyne incognita; 100 mg/L, 48 h
  Corrected mortality: 76.73% and 76.33% and 80.98%
  Death count: 90 and 84 and 92 and 91
  Mortality: 77.06% and 76.67% and 81.25%
Meloidogyne incognita; 100 mg/L, 72 h
  Corrected mortality: 75.93% and 81.31% and 83.87% and 97.27%
  Death count: 97 and 89 and 101 and 109
  Mortality: 76.38% and 81.65% and 84.17% and 97.32%
Meloidogyne incognita; 200 mg/L, 24 h
  Corrected mortality: 69.90% and 86.37% and 84.57% and 94.67%
  Death count: 78 and 90 and 89
  Mortality: 70.27% and 86.54% and 84.76% and 94.74%
Meloidogyne incognita; 200 mg/L, 48 h
  Corrected mortality: 90.24% and 92.27% and 97.86%
  Death count: 104 and 94 and 97 and 93
  Mortality: 90.38% and 92.38% and 97.89%
Meloidogyne incognita; 200 mg/L, 72 h
  Corrected mortality: 94.12% and 94.18% and 98.93%
  Death count: 108 and 98 and 99 and 94
  Mortality: 94.23% and 94.29% and 98.95%
Meloidogyne incognita; 400 mg/L, 24 h
  Death count: 99 and 101 and 117 and 112
Meloidogyne incognita; 400 mg/L, 48 h
  Death count: 101 and 108 and 119 and 117
Meloidogyne incognita; 400 mg/L, 72 h
  Death count: 103 and 110 and 120 and 118
Meloidogyne incognita; 24 h
  LC90: 273.89 µg/mL (≈ 1250 µM)
  LC50: 94.8 µg/mL (≈ 432 µM)
Meloidogyne incognita; 48 h
  LC90: 181.92 µg/mL (≈ 830 µM)
  LC50: 64.4 µg/mL (≈ 294 µM)
Meloidogyne incognita; 72 h
  LC90: 131.82 µg/mL (≈ 601 µM)
  LC50: 49.6 µg/mL (≈ 226 µM)
Meloidogyne incognita; 24 h, 50 mg/L
  mortality at 50 µg/mL: 23.8%
Meloidogyne incognita; 24 h, 100 mg/L
  mortality at 100 µg/mL: 58.3%
Meloidogyne incognita; 24 h, 400 mg/L
  mortality at 400 µg/mL: 96.1%
Meloidogyne incognita; 24 h, read-out: Corrected mortality, 50 mg/L, 24 h
  mortality at 50 µg/mL: 22.8%
Meloidogyne incognita; 24 h, read-out: Corrected mortality, 100 mg/L, 24 h
  mortality at 100 µg/mL: 57.8%
Meloidogyne incognita; 24 h, read-out: Corrected mortality, 400 mg/L, 24 h
  mortality at 400 µg/mL: 96.1%
Meloidogyne incognita; 48 h, 50 mg/L
  mortality at 50 µg/mL: 29.7%
Meloidogyne incognita; 48 h, 100 mg/L
  mortality at 100 µg/mL: 70.9%
Meloidogyne incognita; 48 h, 200 mg/L
  mortality at 200 µg/mL: 93.7%
Meloidogyne incognita; 48 h, 400 mg/L
  mortality at 400 µg/mL: 98.1%
Meloidogyne incognita; 48 h, read-out: Corrected mortality, 50 mg/L, 48 h
  mortality at 50 µg/mL: 28.7%
Meloidogyne incognita; 48 h, read-out: Corrected mortality, 100 mg/L, 48 h
  mortality at 100 µg/mL: 70.4%
Meloidogyne incognita; 48 h, read-out: Corrected mortality, 200 mg/L, 48 h
  mortality at 200 µg/mL: 93.6%
Meloidogyne incognita; 48 h, read-out: Corrected mortality, 400 mg/L, 48 h
  mortality at 400 µg/mL: 98%
Meloidogyne incognita; 72 h, 25 mg/L
  mortality at 25 µg/mL: 17.9%
Meloidogyne incognita; 72 h, 50 mg/L
  mortality at 50 µg/mL: 40.6%
Meloidogyne incognita; 72 h, 200 mg/L
  mortality at 200 µg/mL: 97.3%
Meloidogyne incognita; 72 h, 400 mg/L
  mortality at 400 µg/mL: 100%
Meloidogyne incognita; 72 h, read-out: Corrected mortality, 25 mg/L, 72 h
  mortality at 25 µg/mL: 16.3%
Meloidogyne incognita; 72 h, read-out: Corrected mortality, 50 mg/L, 72 h
  mortality at 50 µg/mL: 39.5%
Meloidogyne incognita; 72 h, read-out: Corrected mortality, 200 mg/L, 72 h
  mortality at 200 µg/mL: 97.2%
Meloidogyne incognita; 72 h, read-out: Corrected mortality, 400 mg/L, 72 h
  mortality at 400 µg/mL: 100%
SD rats
  Death count: 6/6
  Main clinical symptom: All rats died within 5 min
[1]; 25 mg/L
  Number of hatched eggs/7 d: 81 and 92 and 90
  Number of unhatched eggs/7 d: 47 and 36 and 42
[1]; 50 mg/L
  Number of hatched eggs/7 d: 83 and 86 and 78
  Number of unhatched eggs/7 d: 53 and 52
[1]; 100 mg/L
  Number of hatched eggs/7 d: 62 and 72 and 71
  Number of unhatched eggs/7 d: 68 and 60 and 58
[1]; 200 mg/L
  Number of hatched eggs/7 d: 26 and 20 and 23
  Number of unhatched eggs/7 d: 97 and 101 and 103
[1]; 400 mg/L
  Number of hatched eggs/7 d: 12 and 15 and 11
  Number of unhatched eggs/7 d: 113 and 117 and 121
[1]; [2]
  IC50: 91.6 µg/mL (≈ 418 µM)
  IC90: 480 µg/mL (≈ 2190 µM)
